The results in this text go back to BindingDB's records for doi:10.1016/j.bioorg.2016.05.004 (Universidade De Evora, 2016).

The pIC50 is the IC50 on a negative log10 scale, so that one unit is a factor of ten.

The target of one test is Acetylcholinesterase (Electrophorus electricus, UniProt O42275). Description: EeAChE Inhibition Assay. The protocol: The inhibition assay of these compounds for AChE (electrophorus electricus) and BuChE (equine serum) were determined by the spectroscopic method described by Ellman et al. which was adapted for 96-well microplates. 25 The standard compound used was galantamine. A 75 μL of different concentrations of the sample was dissolved in buffer with a maximum of 10% DMSO, 25 μL of ATCI (15 mM), and 125 μL of DTNB 3 mM were added to the wells followed by 25 μL of 0.3 U/mL AChE. The velocity was measured by the increase in the absorbance at 405 nm during 1 min time interval at 25 C in a BIO-TEK ELX800G microplate reader (using Gen5 v.1.05 software).
Sequence of Acetylcholinesterase (O42275 whole entry): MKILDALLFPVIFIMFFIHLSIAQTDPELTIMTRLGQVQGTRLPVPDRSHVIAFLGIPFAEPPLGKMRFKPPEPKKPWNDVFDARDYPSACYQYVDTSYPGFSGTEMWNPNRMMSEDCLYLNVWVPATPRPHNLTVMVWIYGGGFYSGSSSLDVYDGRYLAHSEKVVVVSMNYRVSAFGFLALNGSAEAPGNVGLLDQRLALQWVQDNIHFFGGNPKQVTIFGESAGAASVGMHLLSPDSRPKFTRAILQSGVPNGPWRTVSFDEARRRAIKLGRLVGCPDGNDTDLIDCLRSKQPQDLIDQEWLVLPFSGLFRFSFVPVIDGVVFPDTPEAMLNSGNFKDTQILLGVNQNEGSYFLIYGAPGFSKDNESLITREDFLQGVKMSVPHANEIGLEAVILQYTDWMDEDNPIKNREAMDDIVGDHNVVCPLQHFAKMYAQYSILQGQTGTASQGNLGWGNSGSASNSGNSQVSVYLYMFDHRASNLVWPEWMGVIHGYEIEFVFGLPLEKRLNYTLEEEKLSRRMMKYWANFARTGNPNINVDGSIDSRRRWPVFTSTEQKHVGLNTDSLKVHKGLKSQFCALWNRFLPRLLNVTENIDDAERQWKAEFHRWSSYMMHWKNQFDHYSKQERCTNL

Test [1] deals with Carboxylic ester hydrolase (Equus caballus, UniProt Q9N1N9). Nature of the test: EqBuChE Inhibition Assay. As to the method: The in vitro BuChE assay was performed similarly to the method described above. A standard enzyme activity curve was drawn for each enzyme using seven different concentrations ranging from 0.1 U/mL to 1 U/mL and enzyme activity was calculated (one unit of enzyme will hydrolyze 1.0 μmol of acetylthiocholine to thiocholine and acetate per minute). Inhibitory activity was calculated from 100 subtracted by the percentage of enzyme activity.
Sequence of Carboxylic ester hydrolase (Q9N1N9 whole entry): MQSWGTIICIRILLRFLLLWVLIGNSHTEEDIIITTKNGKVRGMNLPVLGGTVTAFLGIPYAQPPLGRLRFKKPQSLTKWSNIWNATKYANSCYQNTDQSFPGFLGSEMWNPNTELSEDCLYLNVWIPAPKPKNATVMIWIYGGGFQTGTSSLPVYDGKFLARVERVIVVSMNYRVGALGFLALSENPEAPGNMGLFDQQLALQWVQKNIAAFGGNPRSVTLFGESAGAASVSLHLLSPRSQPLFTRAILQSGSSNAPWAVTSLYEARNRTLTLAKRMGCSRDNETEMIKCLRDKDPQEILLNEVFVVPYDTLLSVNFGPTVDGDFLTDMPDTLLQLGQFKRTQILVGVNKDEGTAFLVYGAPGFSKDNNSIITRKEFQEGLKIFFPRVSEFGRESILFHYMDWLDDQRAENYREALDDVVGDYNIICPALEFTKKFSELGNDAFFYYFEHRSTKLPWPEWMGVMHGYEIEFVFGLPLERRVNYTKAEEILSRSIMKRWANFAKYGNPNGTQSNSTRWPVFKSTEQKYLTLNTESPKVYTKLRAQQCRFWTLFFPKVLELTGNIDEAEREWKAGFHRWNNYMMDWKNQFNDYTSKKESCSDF

pIC50: −log10 of the molar value.

For `O=C1NCC(O)c2ccccc21` (stereo unspecified) [Isoquinolin-1(2H)-ones, 1a], the pIC50 at Acetylcholinesterase is 3.87; in test [1] it was 3.09.
For `Cc1ccc2c(c1)C(=O)NCC2O` (stereo unspecified) [Isoquinolin-1(2H)-ones, 1b], the pIC50 at Acetylcholinesterase is under 2.82; in test [1], 3.45.
With `Cc1ccc2c(c1)C(O)CNC2=O` (stereo unspecified) [Isoquinolin-1(2H)-ones, 1c], the negative logarithm of the IC50 (pIC50) (at Acetylcholinesterase; in test [1]) was under 2.82 in each case.
With `O=C1NCC(O)c2cc(Cl)ccc21` (stereo unspecified) [Isoquinolin-1(2H)-ones, 1d], the pIC50 at Acetylcholinesterase is under 2.82; in test [1] it was 3.65.
For `COc1ccc2c(c1)C(=O)NCC2O` (stereo unspecified) [Isoquinolin-1(2H)-ones, 1e], the results for the pIC50 (on Acetylcholinesterase; in test [1]) were 3.51 and under 2.82, respectively.
Take `COC1CNC(=O)c2ccccc21` (stereo unspecified) [Isoquinolin-1(2H)-ones, 1f]: the negative logarithm of the IC50 (pIC50) was 4.05 against Acetylcholinesterase and 3.81 in test [1].
With `Cc1ccc2c(c1)C(=O)NCCC2O` (stereo unspecified) [Isoquinolin-1(2H)-ones, 2b], the pIC50 against Acetylcholinesterase was 3.27; in test [1] it was 3.97.
Consider `O=C1NCCC(O)c2ncccc21` (stereo unspecified) [Isoquinolin-1(2H)-ones, 4a], for which the results for the pIC50 (on Acetylcholinesterase; in test [1]) were 3.26 and under 2.82, respectively.
`Cc1ccc2c(n1)C(O)CCNC2=O` (stereo unspecified) [Isoquinolin-1(2H)-ones, 4b]: the pIC50 (against Acetylcholinesterase; in test [1]) was under 2.82 in each case.
Regarding `O=C1NCC(O)c2ccsc21` (stereo unspecified) [Isoquinolin-1(2H)-ones, 5], the pIC50 is 2.86 at Acetylcholinesterase and under 2.82 in test [1].
With `COc1ccc2c3c1O[C@H]1C[C@@H](O)C=C[C@@]31CCN(C)C2` [galantamine], the negative logarithm of the IC50 (pIC50) in test [1] is 4.21.
